Results published in patent US20100075907A1, “NEUROMEDIN U RECEPTOR AGONISTS AND USES THEREOF” (priority 2006, published 2010).
Non-standard residues stand in square brackets, D forms with d. Residues, ends and D or L forms follow the SMILES beside them. No end group written: not given here. hArg = N=C(N)NCCCC[C@H](N)C(=O)O; dNle = CCCC[C@@H](N)C(=O)O

Each compound was assayed against T1, hNMUR1 (Homo sapiens, UniProt Q9HB89) (assay: In vitro functional assay, HEK-hR1 cells). Details: Table 8, HEK-hR1, functional.
T1 sequence (Q9HB89 1-426): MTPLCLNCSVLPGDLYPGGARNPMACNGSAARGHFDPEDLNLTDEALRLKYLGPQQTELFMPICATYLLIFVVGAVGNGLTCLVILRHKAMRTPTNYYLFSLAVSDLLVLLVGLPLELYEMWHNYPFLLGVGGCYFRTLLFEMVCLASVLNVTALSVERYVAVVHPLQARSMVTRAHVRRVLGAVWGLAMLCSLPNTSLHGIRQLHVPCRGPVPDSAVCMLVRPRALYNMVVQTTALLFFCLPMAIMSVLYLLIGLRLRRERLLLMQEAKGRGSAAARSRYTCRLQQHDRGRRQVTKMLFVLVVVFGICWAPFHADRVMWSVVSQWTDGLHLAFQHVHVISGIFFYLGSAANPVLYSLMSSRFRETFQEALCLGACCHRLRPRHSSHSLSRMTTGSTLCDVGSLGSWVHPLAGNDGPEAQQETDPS
Type: cell-based
Parameters: expressed in transfected cells; host or cells: FLP-In CHO or HEK-293 FLP-In cells (pcDNA5); HEK-293/aeq17 lines (pIRES-puro) were also made
Description: Human, mouse or rat cDNAs encoding NMUR1 or NMUR2 (as described in Howard et al. Nature 406: 70-74 (2000) were subcloned in pcDNA5 (Invitrogen) and transfected into FLP-In CHO cells and HEK-293 FLP-In cells purchased from Invitrogen (Carlsbad, Calif.) using lipofectamine (Invitrogen). The Flp-In system allows integration and expression of a particular gene of interest at a specific genomic location utilizing the Flp recombinase from yeast. The transfected cells were selected by growth in medium containing 200 μg/mL hygromycin (Invitrogen). Populations were frozen at early passage numbers, and these stocks were used for further studies. Stable clones that expressed the mRNAs were identified functionally by FLIPR as well as by RT-PCR. […] Two different rodent NMUR1 cell lines were thus generated: one with the codon as predicted from the genomic databases and another cell line with an engineered methionine (ATG) as the start codon. Additionally, stable cell lines expressing the human receptors were generated in HEK-293/aeq17 cells which stably express the aequorin gene under the CMV promoter. The human NMUR2 cDNA was cloned into pcDNA3.1 and human NMUR1 was subcloned into pIRES-puro (Clontech, Mountain View, Calif.), after transfection cells were selected in media containing G418 and either hygromycin (NMUR2) or puromycin (NMUR1).
The NMU receptors signal primarily through Gαq/11 proteins; therefore calcium mobilization assays can be utilized for functional activity.
Stable cell lines expressing human and or rodent NMUR1 or human NMUR2 receptors were plated at a density of 12,000 cells per well overnight on poly-lysine coated 384-well black-walled plates. The following day, the media was removed from the plates and the cells were subsequently loaded with Fluo-3 (Molecular Probes), a calcium sensitive dye, diluted in FLIPR buffer (1× Hank's buffered saline containing 20 mM HEPES, 0.1% BSA, 2.5 mM probenecid (Sigma) and 1.6 mM TR40). All reagents are from Invitrogen unless otherwise noted. Peptide stocks were resuspended in DMSO at a stock concentration of 2 mM and diluted in FLIPR buffer on the day of the experiment to a 4 μM working stock solution.
After a 90 minute incubation at room-temperature, cell plates were loaded onto a FLIPR (Molecular Devices) to monitor cellular fluorescence (excitation=488 nm; emission=540 nm) before and after compound/peptide addition. Eight to twelve point dose responses were tested on NMUR-expressing cell lines using FLIPR with 1 μM peptide as the highest dose. The response after peptide addition was taken as the maximum fluorescence units minus the fluorescence immediately prior to stimulation for each well. EC50 values were calculated using GraphPad Prism (San Diego, Calif.) software.
In addition to FLIPR, NMU receptor function can also be evaluated using an aequorin assay. Stable cell lines expressing the aequorin jelly fish gene can be used to report the activation of GPCRs by monitoring intracellular calcium mobilization. The objective is to identify compounds which specifically stimulate aequorin bioluminescence. Calcium-dependent luminescence is generated by the treatment of cells with the coelenterate luciferin, coelenterazine. Briefly, confluent monolayers of HEK-293/aeq 17 cells expressing hNMUR1 or hNMUR2 are “charged” with coelenterazine (Molecular Probes, Carlsbad, Calif.). Confluent T75 flasks are rinsed with media containing 300 μM glutathione and 0.1% FBS. Cells are incubated at 37° C. for one hour in 8 mL media, 0.1% FBS, 300 μM glutathione, and 20 μM coelenterazine. T75 flasks are subsequently rinsed with 6 mL ECB buffer (140 mM NaCl, 20 mM KCl, 20 mM HEPES, 5 mM glucose, 1 mM MgCl, 1 mM CaCl2, 0.1 mg/mL BSA, PH 7.3-7.4). Cells are removed from the flask in ECB buffer, pelleted, and resuspended at a density of 2×10^5 cells/mL. Agonists are added to the cells and activity is determined using a luminometer. […]

Compound	% Activity [%]	IC50 [nM]
H-YFGWRPRN-NH2 [Agonist C]	87	1.1
CC(=O)N[C@@H](Cc1ccccc1)C(=O)N[C@H](CC(C)C)C(=O)N[C@@H](Cc1c[nH]c2ccccc12)C(=O)N[C@@H](CCCNC(=N)N)C(=O)N1CCC[C@H]1C(=O)N[C@@H](CCCNC(=N)N)C(=O)N[C@@H](CC(N)=O)C(N)=O [Agonist E, Ac-F-(D-L)-WRPRN-CONH2] (Ac-F[dL]WRPRN-NH2)	100	
YFWRPRN-NH2 [Agonist A, YFWRPRN-CONH2]	92	2.7
CC(C)C[C@@H](NC(=O)[C@H](Cc1ccccc1)NC(=O)[C@@H](N)Cc1ccc(O)cc1)C(=O)N[C@@H](Cc1c[nH]c2ccccc12)C(=O)N[C@@H](CCCNC(=N)N)C(=O)N1CCC[C@H]1C(=O)N[C@@H](CCCNC(=N)N)C(=O)N[C@@H](CC(N)=O)C(N)=O [Agonist B, YF-(D-L)-WRPRN-CONH2] (H-YF[dL]WRPRN-NH2)	103	
C[C@@H](NC(=O)[C@H](Cc1ccccc1)NC(=O)[C@@H](N)Cc1ccc(O)cc1)C(=O)N[C@@H](Cc1c[nH]c2ccccc12)C(=O)N[C@@H](CCCNC(=N)N)C(=O)N1CCC[C@H]1C(=O)N[C@@H](CCCNC(=N)N)C(=O)N[C@@H](CC(N)=O)C(N)=O [Agonist D, YF-(D-A)-WRPRN-CONH2] (H-YF[dA]WRPRN-NH2; N-terminus assumed)	96	
H-FRVDEEFQSPFASQSRGYFWRPRN-NH2 [Agonist G]	91	
Ac-FFRPRN-NH2 [Agonist F, Ac-FFRPRN-CONH2]	96	42

Same assay, conditions: Table 9, HEK-hR1, functional

Compound	% Activity [%]	EC50 [nM]
CC(C)C[C@H](NC(=O)[C@H](Cc1c[nH]c2ccccc12)NC(=O)[C@@H](N)Cc1ccccc1)C(=O)N[C@@H](Cc1ccccc1)C(=O)N[C@@H](CCCNC(=N)N)C(=O)N1CCC[C@H]1C(=O)N[C@@H](CCCCNC(=N)N)C(=O)N[C@@H](CC(N)=O)C(N)=O [Agonist I, FWLFRP-(Harg)-N-CONH2] (H-FWLFRP[hArg]N-NH2)	7	> 1000
CC(C)C[C@H](NC(=O)[C@H](Cc1ccccc1)NC(=O)[C@@H](N)Cc1ccc(O)cc1)C(=O)N[C@@H](Cc1ccccc1)C(=O)N[C@@H](CCCNC(=N)N)C(=O)N1CCC[C@H]1C(=O)N[C@@H](CCCNC(=N)N)C(=O)N[C@@H](CC(N)=O)C(N)=O [NMU-8, reference compound]	100	
H-FWLFRARN-NH2 [Agonist L]	74	> 1000
WALFRARN-NH2 [Agonist M]	0	> 1000
CCCC[C@@H](NC(=O)[C@H](CCCNC(=N)N)NC(=O)[C@H](C)NC(=O)[C@H](CCCNC(=N)N)NC(=O)[C@H](Cc1ccccc1)NC(=O)[C@H](CC(C)C)NC(=O)[C@H](Cc1ccccc1)NC(=O)[C@@H](N)Cc1c[nH]c2ccccc12)C(N)=O [Agonist K, WFLFRAR-(D-Nle)-CONH2] (H-WFLFRAR[dNle]-NH2)	61	400
CC(C)C[C@H](NC(=O)[C@H](Cc1c[nH]c2ccccc12)NC(=O)[C@@H](N)Cc1ccccc1)C(=O)N[C@@H](Cc1ccccc1)C(=O)N[C@@H](CCCNC(=N)N)C(=O)N[C@@H](C)C(=O)N[C@@H](CCCCNC(=N)N)C(=O)N[C@@H](CC(N)=O)C(N)=O [Agonist J, FWLFRA-(Harg)-N-CONH2] (H-FWLFRA[hArg]N-NH2)	0	> 1000
FALFRPRN-NH2 [Agonist N]	87	
CC(C)C[C@H](NC(=O)[C@H](Cc1c[nH]c2ccccc12)NC(=O)[C@H](Cc1ccccc1)NC(=O)CNC(=O)[C@H](CCCNC(=N)N)NC(=O)[C@H](CO)NC(=O)[C@H](CCC(N)=O)NC(=O)[C@H](CO)NC(=O)[C@H](C)NC(=O)[C@H](Cc1ccccc1)NC(=O)[C@@H]1CCCN1C(=O)[C@H](CO)NC(=O)[C@H](CCC(N)=O)NC(=O)[C@H](Cc1ccccc1)NC(=O)[C@H](CCC(=O)O)NC(=O)[C@H](CCC(=O)O)NC(=O)[C@H](CC(=O)O)NC(=O)[C@@H](NC(=O)[C@H](CCCNC(=N)N)NC(=O)[C@@H](N)Cc1ccccc1)C(C)C)C(=O)N[C@@H](Cc1ccccc1)C(=O)N[C@@H](CCCNC(=N)N)C(=O)N1CCC[C@H]1C(=O)N[C@@H](CCCCNC(=N)N)C(=O)N[C@@H](CC(N)=O)C(N)=O [Agonist O] (H-FRVDEEFQSPFASQSRGFWLFRP[hArg]N-NH2; N-terminus assumed)	35	420
CC(C)C[C@H](NC(=O)[C@H](Cc1c[nH]c2ccccc12)NC(=O)[C@H](Cc1ccccc1)NC(=O)CNC(=O)[C@H](CCCNC(=N)N)NC(=O)[C@H](CO)NC(=O)[C@H](CCC(N)=O)NC(=O)[C@H](CO)NC(=O)[C@H](C)NC(=O)[C@H](Cc1ccccc1)NC(=O)[C@@H]1CCCN1C(=O)[C@H](CO)NC(=O)[C@H](CCC(N)=O)NC(=O)[C@H](Cc1ccccc1)NC(=O)[C@H](CCC(=O)O)NC(=O)[C@H](CCC(=O)O)NC(=O)[C@H](CC(=O)O)NC(=O)[C@@H](NC(=O)[C@H](CCCNC(=N)N)NC(=O)[C@@H](N)Cc1ccccc1)C(C)C)C(=O)N[C@@H](Cc1ccccc1)C(=O)N[C@@H](CCCNC(=N)N)C(=O)N[C@@H](C)C(=O)N[C@@H](CCCCNC(=N)N)C(=O)N[C@@H](CC(N)=O)C(N)=O [Agonist P] (H-FRVDEEFQSPFASQSRGFWLFRA[hArg]N-NH2; N-terminus assumed)	11	
CCCC[C@@H](NC(=O)[C@H](CCCNC(=N)N)NC(=O)[C@@H]1CCCN1C(=O)[C@H](CCCNC(=N)N)NC(=O)[C@H](Cc1ccccc1)NC(=O)[C@H](CC(C)C)NC(=O)[C@H](Cc1c[nH]c2ccccc12)NC(=O)[C@H](Cc1ccccc1)NC(=O)CNC(=O)[C@H](CCCNC(=N)N)NC(=O)[C@H](CO)NC(=O)[C@H](CCC(N)=O)NC(=O)[C@H](CO)NC(=O)[C@H](C)NC(=O)[C@H](Cc1ccccc1)NC(=O)[C@@H]1CCCN1C(=O)[C@H](CO)NC(=O)[C@H](CCC(N)=O)NC(=O)[C@H](Cc1ccccc1)NC(=O)[C@H](CCC(=O)O)NC(=O)[C@H](CCC(=O)O)NC(=O)[C@H](CC(=O)O)NC(=O)[C@@H](NC(=O)[C@H](CCCNC(=N)N)NC(=O)[C@@H](N)Cc1ccccc1)C(C)C)C(N)=O [Agonist Q] (H-FRVDEEFQSPFASQSRGFWLFRPR[dNle]-NH2)	0	> 1000
